Tests used:
[1] = Inhibition of AMPK (unknown origin); set-up: species or system Homo sapiens
[2] = biological target: 5'-AMP-activated protein kinase catalytic subunit alpha-1 (Homo sapiens, UniProt Q13131); experiment: Inhibition of AMPKalpha1 (unknown origin)
[3] = Inhibition of full length GST-tagged human AMPKalpha2/beta1/gamma1 using HMRSAMSFAEPG biotinylated peptide as substrate in presence of 10 uM ATP by TR-FRET assay
VCaP = experiment: Antiproliferative activity against human VCaP cells assessed as reduction in cell viability incubated for 3 days by cell-titer glo assay; format: functional, cell-based; conditions: 72 h
LNCaP = experiment: Inhibition of cellular AMPK in human LNCaP cells assessed as reduction in pACC1 levels in cell lysates by HTRF assay
IMR-32 = experiment: Inhibition of cellular AMPK in human IMR-32 cells assessed as reduction in pACC1 levels in cell lysates by HTRF assay
COLO 320 = experiment: Inhibition of cellular AMPK in human COLO 320 cells assessed as reduction in pACC1 levels in cell lysates by HTRF assay
[4] = Inhibition of full length GST-tagged human AMPKalpha2/beta1/gamma1 using HMRSAMSFAEPG biotinylated peptide as substrate in presence of 2 mM ATP by TR-FRET assay
[5] = Binding affinity to AMPK (unknown origin) assessed as inhibition constant; set-up: species or system Homo sapiens
[6] = biological target: Epithelial discoidin domain-containing receptor 1 (Homo sapiens) (UniProt Q08345); experiment: Inhibition of DDR1 (unknown origin) at 10 uM relative to control
Epithelial discoidin domain-containing receptor 1 (Homo sapiens), sequence (Q08345 whole entry, the tested form may be a part): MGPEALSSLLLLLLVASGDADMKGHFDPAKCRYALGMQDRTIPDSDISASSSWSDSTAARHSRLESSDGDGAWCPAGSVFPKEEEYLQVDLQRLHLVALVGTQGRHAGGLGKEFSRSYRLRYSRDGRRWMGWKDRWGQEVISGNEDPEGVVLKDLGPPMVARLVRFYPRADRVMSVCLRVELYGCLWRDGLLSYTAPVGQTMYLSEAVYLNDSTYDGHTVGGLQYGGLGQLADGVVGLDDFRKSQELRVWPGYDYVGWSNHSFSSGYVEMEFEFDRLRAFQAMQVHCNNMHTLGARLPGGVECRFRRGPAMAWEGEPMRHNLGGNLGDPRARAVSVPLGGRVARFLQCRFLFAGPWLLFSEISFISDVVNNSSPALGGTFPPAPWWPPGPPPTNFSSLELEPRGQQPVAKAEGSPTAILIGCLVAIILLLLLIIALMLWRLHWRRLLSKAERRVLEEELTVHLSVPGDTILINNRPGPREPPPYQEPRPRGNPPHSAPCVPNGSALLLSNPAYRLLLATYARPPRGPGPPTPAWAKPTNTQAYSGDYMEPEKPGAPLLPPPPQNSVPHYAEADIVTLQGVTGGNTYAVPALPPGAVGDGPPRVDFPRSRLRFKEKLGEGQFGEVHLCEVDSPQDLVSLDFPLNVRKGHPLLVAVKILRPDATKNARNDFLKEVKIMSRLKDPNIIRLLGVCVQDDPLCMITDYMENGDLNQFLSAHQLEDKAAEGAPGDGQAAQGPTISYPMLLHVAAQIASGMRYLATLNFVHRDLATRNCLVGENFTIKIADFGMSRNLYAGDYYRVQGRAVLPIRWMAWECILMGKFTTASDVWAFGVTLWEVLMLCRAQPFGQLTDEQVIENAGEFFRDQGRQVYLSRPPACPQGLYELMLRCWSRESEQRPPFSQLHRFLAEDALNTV

Homo sapiens = species on record: Homo sapiens; experiment: Inhibition of SRC (unknown origin) at 10 uM relative to control
[7] = biological target: T1, TGF-beta receptor type-1 (Homo sapiens) (UniProt P36897); experiment: Inhibition of ALK5 (unknown origin) at 10 uM relative to control
T1 sequence (whole entry): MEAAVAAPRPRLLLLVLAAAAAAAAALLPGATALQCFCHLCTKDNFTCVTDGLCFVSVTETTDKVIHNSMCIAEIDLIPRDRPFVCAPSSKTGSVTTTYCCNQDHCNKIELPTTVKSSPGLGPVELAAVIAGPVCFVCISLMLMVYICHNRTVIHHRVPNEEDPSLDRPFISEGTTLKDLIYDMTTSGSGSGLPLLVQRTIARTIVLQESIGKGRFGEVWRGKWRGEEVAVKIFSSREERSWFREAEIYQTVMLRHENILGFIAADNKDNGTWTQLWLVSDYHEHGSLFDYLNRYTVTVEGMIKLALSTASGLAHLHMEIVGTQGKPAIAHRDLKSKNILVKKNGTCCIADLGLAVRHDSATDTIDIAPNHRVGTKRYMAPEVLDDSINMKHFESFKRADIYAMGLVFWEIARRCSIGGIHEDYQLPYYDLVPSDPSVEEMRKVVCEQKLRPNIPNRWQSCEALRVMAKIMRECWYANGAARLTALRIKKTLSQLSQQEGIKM

[8] = biological target: Serine/threonine-protein kinase PAK 1 (Homo sapiens) (UniProt Q13153); experiment: Activation of PAK1 (unknown origin) at 10 uM relative to control
Serine/threonine-protein kinase PAK 1 (Homo sapiens), sequence (Q13153 whole entry, looked up): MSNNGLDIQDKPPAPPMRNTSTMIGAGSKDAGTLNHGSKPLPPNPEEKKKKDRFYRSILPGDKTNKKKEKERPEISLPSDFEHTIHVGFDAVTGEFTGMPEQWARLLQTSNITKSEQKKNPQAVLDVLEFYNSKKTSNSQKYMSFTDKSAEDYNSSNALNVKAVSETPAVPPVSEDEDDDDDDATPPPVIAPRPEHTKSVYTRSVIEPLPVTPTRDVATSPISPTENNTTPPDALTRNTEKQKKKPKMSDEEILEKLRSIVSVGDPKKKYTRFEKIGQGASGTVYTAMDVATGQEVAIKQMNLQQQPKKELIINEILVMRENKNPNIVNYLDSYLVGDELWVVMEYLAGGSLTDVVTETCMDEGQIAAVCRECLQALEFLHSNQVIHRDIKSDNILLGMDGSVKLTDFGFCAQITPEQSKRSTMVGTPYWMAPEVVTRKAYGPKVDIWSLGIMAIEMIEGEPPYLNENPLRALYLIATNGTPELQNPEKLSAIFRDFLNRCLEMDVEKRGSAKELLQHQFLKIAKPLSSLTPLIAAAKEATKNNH

[9] = biological target: Serine/threonine-protein kinase N1 (Homo sapiens) (UniProt Q16512); experiment: Activation of PRK1 (unknown origin) at 10 uM relative to control
Serine/threonine-protein kinase N1 (Homo sapiens), sequence (Q16512 2-942 limits assumed): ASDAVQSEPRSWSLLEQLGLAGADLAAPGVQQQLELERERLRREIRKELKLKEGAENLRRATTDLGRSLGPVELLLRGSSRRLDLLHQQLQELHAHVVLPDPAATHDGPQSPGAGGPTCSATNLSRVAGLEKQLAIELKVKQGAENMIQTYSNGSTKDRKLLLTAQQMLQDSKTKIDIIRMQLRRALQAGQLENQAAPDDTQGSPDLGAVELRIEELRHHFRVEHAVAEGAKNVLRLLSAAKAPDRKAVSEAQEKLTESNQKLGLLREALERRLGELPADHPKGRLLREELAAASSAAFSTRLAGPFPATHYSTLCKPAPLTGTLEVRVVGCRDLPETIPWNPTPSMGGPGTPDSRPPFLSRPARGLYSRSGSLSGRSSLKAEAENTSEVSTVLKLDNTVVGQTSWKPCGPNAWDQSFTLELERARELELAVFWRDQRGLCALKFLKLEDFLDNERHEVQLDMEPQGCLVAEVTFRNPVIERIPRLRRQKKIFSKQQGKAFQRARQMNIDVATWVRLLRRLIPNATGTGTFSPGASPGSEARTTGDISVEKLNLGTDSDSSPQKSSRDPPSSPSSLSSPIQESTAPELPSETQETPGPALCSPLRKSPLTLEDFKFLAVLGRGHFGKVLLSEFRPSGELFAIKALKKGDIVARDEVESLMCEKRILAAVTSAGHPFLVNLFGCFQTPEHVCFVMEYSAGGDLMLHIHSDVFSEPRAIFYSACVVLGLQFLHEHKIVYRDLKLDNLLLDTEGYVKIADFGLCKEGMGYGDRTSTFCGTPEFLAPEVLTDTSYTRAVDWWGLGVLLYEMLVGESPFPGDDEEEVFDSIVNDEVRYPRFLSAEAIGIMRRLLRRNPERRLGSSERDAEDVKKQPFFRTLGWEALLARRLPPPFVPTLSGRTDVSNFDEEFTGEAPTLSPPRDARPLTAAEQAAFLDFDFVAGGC

[10] = biological target: Leucine-rich repeat serine/threonine-protein kinase 2 (Homo sapiens) (UniProt Q5S007); experiment: Activation of LRRK2 (unknown origin) at 10 uM relative to control

5'-AMP-activated protein kinase catalytic subunit alpha-1, sequence (Q13131 whole entry): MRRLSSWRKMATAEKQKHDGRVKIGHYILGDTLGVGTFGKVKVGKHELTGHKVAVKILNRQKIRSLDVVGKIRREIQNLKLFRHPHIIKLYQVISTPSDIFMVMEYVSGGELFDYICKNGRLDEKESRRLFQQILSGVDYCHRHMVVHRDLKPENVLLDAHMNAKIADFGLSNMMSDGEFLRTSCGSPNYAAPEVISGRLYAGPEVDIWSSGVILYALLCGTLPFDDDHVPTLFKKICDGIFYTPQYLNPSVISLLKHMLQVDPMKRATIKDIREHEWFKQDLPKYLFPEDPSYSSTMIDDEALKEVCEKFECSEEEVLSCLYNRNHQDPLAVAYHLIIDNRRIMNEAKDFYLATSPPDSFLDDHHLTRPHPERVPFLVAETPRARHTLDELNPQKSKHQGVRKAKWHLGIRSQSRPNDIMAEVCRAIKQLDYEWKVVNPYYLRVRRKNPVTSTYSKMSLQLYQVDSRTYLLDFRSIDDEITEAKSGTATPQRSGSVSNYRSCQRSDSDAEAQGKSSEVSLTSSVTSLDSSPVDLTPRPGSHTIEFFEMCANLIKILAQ

## CCN(CC)CCNC(=O)c1c(C)[nH]c(/C=C2\C(=O)Nc3ccc(F)cc32)c1C [SUNITINIB]
[1]
  IC50: 40 nM

## CNC(=O)c1ccccc1Oc1nc(Nc2cc(OC)c(OC)c(OC)c2)ncc1Br
[2]
  IC50: 400 nM

## CCc1ccccc1C(=O)Nc1n[nH]c2c(C)c(F)c(C3C(C#N)=C(C)N(C)C(C)=C3C#N)cc12 [BAY-3827]
[3]
  IC50: 1.4 nM
VCaP
  IC50: ~100 nM
LNCaP
  IC50: ~100 nM
IMR-32
  IC50: ~150 nM
COLO 320
  IC50: ~400 nM
[4]
  IC50: 15 nM

## c1cc(-c2cnn3cc(-c4ccc(OCCN5CCCCC5)cc4)cnc23)ccn1 [DORSOMORPHIN]
[5]
  Ki: 109 nM
[1]
  IC50: 2380 nM

## O=C(O)Cc1csc(Nc2ccc(C(F)(F)F)cc2)n1
[6]
  inhibition: > 50%
Homo sapiens
  inhibition: > 50%
[7]
  inhibition: > 50%
[8]
  activation: 30%
[9]
  activation: 30%
[10]
  activation: 30%

— ChEMBL document CHEMBL6121059, “Small Molecule Modulators of AMP-Activated Protein Kinase (AMPK) Activity and Their Potential in Cancer Therapy” (J Med Chem, 2025)
